Test [1] addresses human PDHK2 (12-407) (Homo sapiens (Human), UniProt Q15119). The test is described as follows: Isothermal titration calorimetry (ITC) binding. The following applies: 30° C., pH 7.5. Here is the method: Isothermal Titration Calorimetry
ITC measurements were performed with a VP-ITC micro calorimeter (Microcal, LLC/GE Healthcare Bio-Sciences AB, Uppsala, Sweden). In general titrations were performed by titrating the protein (50 μM) to the test compound (5 μM) in 12 μl injections. All binding experiments were carried out at 30° C. In general the test compounds were diluted form DMSO stock solutions into the measurement buffer with a maximum final concentration of 1% DMSO. The measurement buffer was 20 mM HEPES, 135 mM KCl, 1 mM TCEP, 2 mM MgCl2, 15 mM NaH2PO4, pH 7.5. The human PDHK2 (12-407) was produced in E. coli as his-tagged protein and purified by affinity chromatography. The tag was removed by side specific proteolysis. Before titration the protein buffer was changed to the measurement buffer containing the same DMSO concentration as the test compound dilution. ITC data analysis was performed using Origin 7 calorimetry software from the same supplier. For most measurements a binding model of one binding site was assumed. According to the applied mathematical model it is possible to calculate the binding constant (KA), the observed binding enthalpy (ΔH^obs) as well as the stoichiometry (N) of the formed complex. Preceding analysis the raw data was corrected for the heats of dilution by extrapolating from the saturation value from the end of titration. In order to allow for direct comparison between the respective experimental series and protein preparations the protein concentration was corrected by referencing titrations to a well behaved standard inhibitor. The apparent stoichiometry values defined the fraction of binding competent protein and compensated for relative errors in protein concentration measurements. This corrected protein concentration was used to set up ITC experiment series with test compounds. Any deviations from ideal 1:1 stoichiometry observed here were attributed to errors in compound concentration. This nominal compound concentration was corrected as well to achieve 1:1 stoichiometry in the fit.
In general terms: Isothermal titration calorimetry measures the heat released or taken up as one component is titrated into another.

Test [2] concerns the target PDHK2 (Homo sapiens (Human), UniProt Q15119). In words: Biochemical activity testing of PDHK2: PDC inactivation assay. The following applies: human rec PDHK2, PDC from porcine heart, ATP 5 μM; read-out: IC50 PDHK2 (enzyme assay). The text has this:
Biochemical Activity Testing of PDHK2: PDC Inactivation Assay
The biochemical activity assay for PDHK2 is based on the inactivation of PDC through phosphorylation by PDHK2. The assay is run in two steps: the enzymatic PDHK2 reaction in which isolated PDC is phosphorylated by PDHK2 with ATP as co-substrate and the PDC activity assay in which pyruvate and NAD are converted to acetyl-CoA and NADH. The PDC activity correlates to the increase in NADH and thereby is detectable directly via the increasing fluorescence signal (Exc 340 nm, Em 450 nm). Inhibition of PDHK2 results in a lower phosphorylation status and thereby a less decrease in activity of PDC and a stronger increase in NADH fluorescence signal.
The PDC inactivation assay is performed in Greiner 384-well microtiter plates and is used for high throughput screen. 4 μl of PDHK2 (human, rec, Carna Bioscience, 10 ng/μl-137 nM final concentration) and PDC (isolated from porcine heart, Sigma-Aldrich, 20 mU/ml final concentration) are incubated in the absence or presence of the test compound (10 dilution concentrations) for 30 min at room temperature in kinase buffer (15 mM potassium phosphate buffer, pH 7.0, 60 mM KCl, 1.5 mM DTT, 2.5 mM MgCl2, 0.0125% (w/v) BSA, 0.125% Pluronic F-68). The kinase reaction is started by the addition of 4 μl ATP substrate solution (fc 5 μM in kinase buffer). After 30 min incubation at 37° C. 40 μl of PDC reaction solution (100 mM Tris/HCl, pH 7.8, 0.5 mM EDTA, 1 mM MgCl2, 50 mM NaF, 0.25 mM Coenzyme A, 5 mM pyruvate, 1 mM NAD, 5 mM DTT, 1 mM thiamine pyrophosphate) is added. The first fluorescence measurement is performed on a Perkin Elmer Envision (Exc 340 nm, Em 450 nm). The reaction is incubated for 45 min at room temperature. Afterwards a second fluorescence measurement is performed and the PDC activity is calculated by the difference between both measurements. As full value for the PDHK2 assay the inhibitor-free PDHK2 reaction is used. The pharmacological zero value used is DCA (Sigma-Aldrich) in a final concentration of 3 mM. The inhibitory values (IC50) were determined using either the program Symyx Assay Explorer® or Condosseo® from GeneData.

The subject of test [3] is PDH-E1alpha (pSer300) in HEK293T cells. In words: Cellular immunofluorescence assay, PDH-E1alpha (pSer300). The following applies: Homo sapiens, HEK-293T, 5 hours incubation, read-out: IC50 (cell data). The class given is cell-based. Here is the method:
Cellular Assay for Determination of Compound Activities
Compound activities were determined in a cellular immunofluorescence assay. Human HEK293T cells were seeded into black 384-well plates with clear bottom and grown overnight.
Next day, test compounds were added to the wells and the plates incubated for 5 hours. Following this, cells were fixed with formaldehyde, permeabilised and blocked. The primary antibody, Anti-PDH-E1alpha (pSer300), AP1064 (Merck Millipore) was added and incubated overnight in the plate wells. Next, cells were washed and the seconday antibody, Alexa Fluor 488, goat anti-rabbit ab (A-11008, Invitrogen) was added together with Hoechst 33258 (H3569, Invitrogen) and incubated for 1 hour in the plate wells. Finally, cells were washed and the plates were measured on the laser scanning cytometer acumen hci (TTpLabtech).
The raw data were normalized against a pharmacological inhibitor control and dose response curves were generated by plotting the percent effect values using the software package Genedata screener (Genedata).

Data on 14 molecules can be found in patent US11026936B2, “Piperidinyl-propanone derivatives” (Merck Patent GmbH, priority 2016, dated 2021).

Broadly, the Kd is a measure of binding affinity in units of concentration. A higher Kd goes with lower affinity. As a reminder, the IC50 is the concentration at which inhibition is half-maximal.

Take `Cc1ccc(-c2nnc(C3([C@H]4CCN(C(=O)[C@@](C)(O)C(F)(F)F)C[C@H]4C)CC3)o2)cc1` [Compound A25, (R)-3,3,3-Trifluoro-2-hydroxy-2-methyl-1-{(3S,4S)-3-methyl-4-[1-(5-p-tolyl-[1,3,4]oxadiazol-2-yl)-cyclopropyl]-piperidin-1-yl}-propan-1-one]: in test [1], binding was characterised by a dissociation constant (Kd) of 4.1 nM. The IC50 in test [2] was 100 nM; in test [3], 30 nM.

In turn, `CC1CN(C(=O)[C@@](C)(O)C(F)(F)F)CCC1C1(c2nnc(-c3ccccc3)o2)CC1` (stereo partly drawn) [Compound A12, (R)-3,3,3-Trifluoro-2-hydroxy-2-methyl-1-{3-methyl-4-[1-(5-phenyl-[1,3,4]oxadiazol-2-yl)-cyclopropyl]-piperidin-1-yl}-propan-1-one] showed a Kd in test [1] of 8.7 nM. For the same molecule, the IC50 in test [2] worked out at 270 nM; in test [3], 56 nM.

`C[C@@](O)(C(=O)N1CCC(C2(c3nnc(-c4ccc(F)cc4)o3)CC2)CC1)C(F)(F)F` [Compound A6, (R)-3,3,3-Trifluoro-1-{4-{1-[5-(4-fluoro-phenyl)-[1,3,4]oxadiazol-2-yl]-cyclopropyl}-piperidin-1-yl}-2-hydroxy-2-methyl-propan-1-one]: the equilibrium dissociation constant (Kd) in test [1] stood at 270 nM. Besides, the values for the IC50 in test [2] and in test [3] were 500 nM and 2000 nM, respectively.

The molecule `CC1CN(C(=O)[C@@](C)(O)C(F)(F)F)CCC1C1(c2nnc(-c3ccccc3)[nH]2)CC1` (stereo partly drawn) [Compound A11, (R)-3,3,3-Trifluoro-2-hydroxy-2-methyl-1-{3-methyl-4-[1-(5-phenyl-1H-[1,2,4]triazol-3-yl)-cyclopropyl]-piperidin-1-yl}-propan-1-one] displayed a dissociation constant (Kd) in test [1] of 8.3 nM. Moreover, the IC50 in test [2] amounted to 370 nM; in test [3], 120 nM.

In the case of `C[C@H]1CN(C(=O)[C@@](C)(O)C(F)(F)F)CC[C@H]1C1(c2nnc(-c3ccccc3)o2)CC1` (stereo in doubt) [Compound A15, (R)-3,3,3-Trifluoro-2-hydroxy-2-methyl-1-{(S)-3-methyl-4-[1-(5-phenyl-[1,3,4]oxadiazol-2-yl)-cyclopropyl]-piperidin-1-yl}-propan-1-one], the IC50 was 11000 nM in test [2] and 7300 nM in test [3].

Take `COc1ccc(-c2nnc(C3([C@H]4CCN(C(=O)[C@@](C)(O)C(F)(F)F)C[C@H]4C)CC3)o2)cn1` [Compound A43, (R)-3,3,3-Trifluoro-2-hydroxy-1-((3S,4S)-4-{1-[5-(6-methoxy-pyridin-3-yl)-[1,3,4]oxadiazol-2-yl]-cyclopropyl}-3-methyl-piperidin-1-yl)-2-methyl-propan-1-one]: in test [1], the Kd was determined as 3.8 nM. The IC50 came to 100 nM in test [2] and 16 nM in test [3].

On to `CC(C)(c1nnc(-c2ccccc2)[nH]1)C1CCN(C(=O)[C@@](C)(O)C(F)(F)F)CC1` [Compound A3, (R)-3,3,3-Trifluoro-2-hydroxy-2-methyl-1-{4-[1-methyl-1-(5-phenyl-4H-[1,2,4]triazol-3-yl)-ethyl]-piperidin-1-yl}-propan-1-one], for which the affinity in test [1], expressed as Kd, was 98 nM. Further, the results for the 50% inhibitory concentration (IC50) in test [2] and in test [3] were 320 nM and 3300 nM, respectively.

Turning to `COc1ccc(-c2nnc(C3([C@H]4CCN(C(=O)[C@@](C)(O)C(F)(F)F)C[C@H]4C)CC3)o2)cc1` [Compound A31, (R)-3,3,3-Trifluoro-2-hydroxy-1-((3S,4S)-4-{1-[5-(4-methoxy-phenyl)-[1,3,4]oxadiazol-2-yl]-cyclopropyl}-3-methyl-piperidin-1-yl)-2-methyl-propan-1-one], the dissociation constant (Kd) in test [1] was determined as 3.6 nM. For the same molecule, the half-maximal inhibitory concentration (IC50) in test [2] was 180 nM; in test [3] it was 17 nM.

In test [1], `C[C@@H]1CN(C(=O)[C@@](C)(O)C(F)(F)F)CC[C@@H]1C1(c2nnc(-c3ccccc3)o2)CC1` (stereo in doubt) [Compound A16, (R)-3,3,3-Trifluoro-2-hydroxy-2-methyl-1-{(R)-3-methyl-4-[1-(5-phenyl-[1,3,4]oxadiazol-2-yl)-cyclopropyl]-piperidin-1-yl}-propan-1-one] yielded a Kd of 4.9 nM. The IC50 worked out at 150 nM in test [2] and 35 nM in test [3].

In test [1], `C[C@@](O)(C(=O)N1CCC(C2(c3nnc(-c4ccccc4)o3)CC2)CC1)C(F)(F)F` [Compound A5, (R)-3,3,3-Trifluoro-2-hydroxy-2-methyl-1-{4-[1-(5-phenyl-[1,3,4]oxadiazol-2-yl)-cyclopropyl]-piperidin-1-yl}-propan-1-one] gave a Kd of 200 nM. For the same molecule, the IC50 in test [2] was found to be 440 nM; in test [3], 1500 nM.

Consider `CC(C)(c1nnc(C2CCCCC2)o1)C1CCN(C(=O)[C@@](C)(O)C(F)(F)F)CC1` [Compound A10, (R)-1-{4-[1-(5-Cyclohexyl-[1,3,4]oxadiazol-2-yl)-1-methyl-ethyl]-piperidin-1-yl}-3,3,3-trifluoro-2-hydroxy-2-methyl-propan-1-one], for which the Kd in test [1] worked out at 120 nM. Moreover, the concentration for half-maximal inhibition (IC50) was 400 nM in test [2] and 2000 nM in test [3].

`C[C@@H]1CN(C(=O)[C@@](C)(O)C(F)(F)F)CC[C@@H]1C1(c2nnc(-c3ccc(F)cc3)[nH]2)CC1` [Compound A19, (R)-3,3,3-Trifluoro-1-((3S,4S)-4-{1-[5-(4-fluoro-phenyl)-4H-[1,2,4]triazol-3-yl]-cyclopropyl}-3-methyl-piperidin-1-yl)-2-hydroxy-2-methyl-propan-1-one] gave a Kd in test [1] of 4.2 nM. Besides, the IC50 came to 75 nM in test [2] and 28 nM in test [3].

In turn, `CC(C)(C)c1nnc(C2(C3CCN(C(=O)[C@@](C)(O)C(F)(F)F)CC3)CC2)o1` [Compound A8, (R)-1-{4-[1-(5-tert-Butyl-[1,3,4]oxadiazol-2-yl)-cyclopropyl]-piperidin-1-yl}-3,3,3-trifluoro-2-hydroxy-2-methyl-propan-1-one] had a Kd in test [1] of 650 nM. For the same molecule, the IC50 is 2400 nM in test [2] and 8700 nM in test [3].

For the molecule `C[C@@](O)(C(=O)N1CCC(C2(c3nnc(-c4ccc(F)cc4)[nH]3)CC2)CC1)C(F)(F)F` [Compound A2, (R)-3,3,3-Trifluoro-1-{4-{1-[5-(4-fluorophenyl)-4H-[1,2,4]triazol-3-yl]-cyclopropyl}-piperidin-1-yl}-2-hydroxy-2-methyl-propan-1-one], in test [1], the Kd was determined as 180 nM. Also, in test [3], the 50% inhibitory concentration (IC50) came to 2000 nM.
